Entries after “also recorded” stand apart in the source; their conditions may differ. Read-outs that look alike come from different tables or passages of the source.

One data set has as its system parasites. Particulars: mice, dosage of 5 mg/kg, four days after treatment; cited from earlier work.
Data set [1] has as its system P. falciparum 3D7 (CQ-sensitive). Nature of the data set: pLDH antimalarial assay, P. falciparum 3D7. It is filed as cell-based, Plasmodium falciparum. Particulars: for Selectivity Index (SI) (CC50MTT/EC50pLDH) P. falciparum 3D7 (CQ-sensitive): Vero CC50 / 3D7 EC50; for antimalarial activity category against CQ-sensitive P. falciparum 3D7: category by EC50 range.
Data set [2] has as its system P. falciparum Gombak A (CQ-resistant). Nature of the data set: pLDH antimalarial assay, P. falciparum Gombak A. Particulars: for EC50: 48 h; for Selectivity Index (SI) (CC50MTT/EC50pLDH) P. falciparum Gombak A (CQ-resistant): Vero CC50 / Gombak A EC50. Format: cell-based, Plasmodium falciparum.
Another data set has as its system P. knowlesi PKA1H1. Nature of the data set: pLDH antimalarial assay, P. knowlesi A1H1. Particulars: for EC50: Plasmodium knowlesi, 24 h, read-out: P. knowlesi PKA1H1 EC50 (μM) ± SD; for Selectivity Index (SI) (CC50MTT/EC50pLDH) P. knowlesi PKA1H1: Vero CC50 / PKA1H1 EC50. It is filed as cell-based, Plasmodium knowlesi.
The subject of another data set is Vero cell (Normal cell). Nature of the data set: MTT cytotoxicity assay against Vero cells. Format: cell-based. Particulars: read-out: Vero cell (Normal cell) CC50 (μM) ± SD, 72 h, three independent experiments.
Data set [3] relates to zebrafish embryos. Nature of the data set: Zebrafish embryo acute toxicity. Format: in vivo, zebrafish (Danio rerio). Particulars: for effect on early embryonic development: zebrafish embryos at 24 hpf.
In the next data set the test system is zebrafish larvae. Nature of the data set: Zebrafish cardiotoxicity. Format: in vivo, zebrafish (Danio rerio). Particulars: zebrafish larvae at 72 hpf.
The test system of data set [4] is transgenic zebrafish line Tg(kdrl:egfp). Nature of the data set: Blood vessel formation in transgenic zebrafish Tg. It is filed as in vivo, zebrafish (Danio rerio). Particulars: 30 hpf.
Data set [5] has as its system zebrafish embryos. Nature of the data set: Spontaneous tail coiling. It is filed as in vivo, zebrafish (Danio rerio). Particulars: zebrafish embryos at 24 hpf, 6.25-50 μM, vs 0.1% DMSO.
The next data set is described as follows: Solubility in egg water. It is filed as physicochemical. Particulars: zebrafish egg water.
[6] abbreviates: Plasmodium falciparum, 3D7, 48 h, read-out: P. falciparum 3D7 (CQ-sensitive) EC50 (μM) ± SD, pLDH assay, 48 h, three independent experiments.
The mark [7] stands for this setting: read-out: P. falciparum 3D7 (CQ-sensitive) EC50 (μM) ± SD, pLDH assay, 48 h, three independent experiments.
The mark [8] stands for this setting: Plasmodium falciparum, read-out: P. falciparum Gombak A (CQ-resistant) EC50 (μM) ± SD, pLDH assay, 48 h, three independent experiments.
[9] abbreviates: zebrafish, 72 hpf, up to 200 μM.
The mark [10] stands for this setting: up to 200 μM, 2 h after treatment.

`COc1cc(/C=C/C(=O)CC(=O)/C=C/c2ccc(O)c(OC)c2)ccc1O` [free curcumin, curcumin]: in the data set with parasites, the suppression of parasites is on record as 40.5%.

As to `COc1ccc(OC)c(C=CC(=O)C=Cc2cc(OC)ccc2OC)c1` [MS33C, 1,5-Bis(2,5-dimethoxyphenyl)penta-1,4-dien-3-one], the EC50 was under 5 µM in data set [1] (setting [6]), 2.5 ± 0.4 µM in data set [1] (setting [7]), 56.2 ± 1.3 µM in [2] (setting [8]) and 5.1 ± 0.2 µM with P. knowlesi PKA1H1. Also, the “Selectivity Index (SI) (CC50MTT/EC50pLDH) P. falciparum 3D7 (CQ-sensitive)” value in data set [1] is recorded as 65.2. In addition, the “antimalarial activity category against CQ-sensitive P. falciparum 3D7” value in [1] is reported as “active”. In data set [2], the “Selectivity Index (SI) (CC50MTT/EC50pLDH) P. falciparum Gombak A (CQ-resistant)” value stood at 2.9. Besides, the “Selectivity Index (SI) (CC50MTT/EC50pLDH) P. knowlesi PKA1H1” value in the data set on P. knowlesi PKA1H1 was determined as 32.0. Besides, the 50% cytotoxic concentration (CC50) in the data set on Vero cell (Normal cell) was 163 ± 1.8 µM. Further, the “effect on early embryonic development” value in the data set on zebrafish embryos [3] (up to 200 μM) is “no significant effect”. In addition, in the data set on zebrafish embryos [3] (setting [9]), the “morphological changes / heart development” value is on record as “no detectable morphological changes; also recorded: no effect on normal heart development”. The heart rate entry in the data set with zebrafish larvae (setting [10]) is recorded as “no obvious abnormalities; also recorded: normal heart beats”. Moreover, in data set [4] (up to 200 μM), the “development of intersegmental vessels (ISVs)” value (from here on “development … (ISVs)”) was “no effect on normal vessel development; also recorded: no significant difference”. In addition, the “mean STC activity” value in the data set with zebrafish embryos [5] is “No significant change”.

Take `O=C1C(=Cc2ccccc2Cl)CCCC1=Cc1ccccc1Cl` [MS47, 2,6-Bis(2-chlorobenzylidene)cyclohexanone]: the EC50 was found to be 16.1 ± 0.5 µM in [1] (setting [6]), 51.4 ± 2.7 µM in data set [2] (setting [8]) and 21.7 ± 1.2 µM with P. knowlesi PKA1H1. The “Selectivity Index (SI) (CC50MTT/EC50pLDH) P. falciparum 3D7 (CQ-sensitive)” value in data set [1] is recorded as 10.6. Moreover, in data set [1], the “antimalarial activity category against CQ-sensitive P. falciparum 3D7” value is reported as “active”. Besides, the “Selectivity Index (SI) (CC50MTT/EC50pLDH) P. falciparum Gombak A (CQ-resistant)” value in data set [2] is listed as 3.3. Moreover, the “Selectivity Index (SI) (CC50MTT/EC50pLDH) P. knowlesi PKA1H1” value in the data set on P. knowlesi PKA1H1 is reported as 7.9.

Take `COc1cc(C=C2CCC(=Cc3cc(OC)c(OC)c(OC)c3)C2=O)cc(OC)c1OC` [MS87, 2,5-Bis(3,4,5-trimethoxybenzylidene)cyclopentanone]: the EC50 in data set [1] (setting [6]) is 10.8 ± 1.3 µM; in data set [2] (setting [8]) it was 1.85 to 8.75 µM; in [2] (read-out: P. falciparum Gombak A (CQ-resistant) EC50 (μM) ± SD, pLDH assay, three independent experiments) it was 1.85 ± 2.8 µM; in the data set on P. knowlesi PKA1H1 it was 11.4 ± 0.9 µM. Further, the “Selectivity Index (SI) (CC50MTT/EC50pLDH) P. falciparum 3D7 (CQ-sensitive)” value in [1] came out at 52.2. Further, in [1], the “antimalarial activity category against CQ-sensitive P. falciparum 3D7” value is given as “active”. In data set [2], the “Selectivity Index (SI) (CC50MTT/EC50pLDH) P. falciparum Gombak A (CQ-resistant)” value came out at 304.9. The “Selectivity Index (SI) (CC50MTT/EC50pLDH) P. knowlesi PKA1H1” value in the data set on P. knowlesi PKA1H1 was determined as 49.5. The “solubility in egg water” value in the data set “Solubility in egg water” is “problems with solubility in egg water”.

Take `COc1cccc(C=CC(=O)C=Cc2cccc(OC)c2OC)c1OC` [MS33A, 1,5-Bis(2,3-dimethoxyphenyl)penta-1,4-dien-3-one]: in data set [1], the “Selectivity Index (SI) (CC50MTT/EC50pLDH) P. falciparum 3D7 (CQ-sensitive)” value is reported as 26.6 and the “antimalarial activity category against CQ-sensitive P. falciparum 3D7” value was “active”. Also, the concentration for a half-maximal effect (EC50) in [2] (setting [8]) was 87.5 ± 0.9 µM. Besides, the “Selectivity Index (SI) (CC50MTT/EC50pLDH) P. falciparum Gombak A (CQ-resistant)” value in [2] was 1.0. Moreover, in the data set with P. knowlesi PKA1H1, the concentration for a half-maximal effect (EC50) is 3.6 ± 0.2 µM and the “Selectivity Index (SI) (CC50MTT/EC50pLDH) P. knowlesi PKA1H1” value came out at 22.9. The CC50 with Vero cell (Normal cell) was 82.6 ± 1.7 µM. In addition, the “effect on early embryonic development” value in the data set with zebrafish embryos [3] (100 μM (not at 50 μM and lower)) is recorded as “gastrulation defects”. Moreover, the “heart development (edema)” value in the data set with zebrafish embryos [3] (zebrafish, 72 hpf, 50 μM (not at 25 μM)) is recorded as “heart edema”. Also, the heart rate entry in the data set on zebrafish larvae (12.5 μM) is given as “relatively normal”. In addition, in the data set with zebrafish larvae (25 and 50 μM), the heart rate entry is “decrease in heartbeats”. The “development … (ISVs)” value in data set [4] (50 μM (not at 25 μM)) is recorded as “affected ISVs development; also recorded: inhibitory effects on ISV development”. Besides, the “mean STC activity” value with zebrafish embryos [5] is “No significant change”.

For the compound `CCN(CC)CCCC(C)Nc1ccnc2cc(Cl)ccc12` (centres unmarked) [CQ, chloroquine, reference compound], in data set [2] (setting [8]), the EC50 is 5.56 ± 3.2 µM.

Regarding `COc1cccc(OC)c1C=CC(=O)C=Cc1c(OC)cccc1OC` [MS33D, 1,5-Bis(2,6-dimethoxyphenyl)penta-1,4-dien-3-one], the EC50 in [1] (setting [6]) worked out at 21.7 ± 0.8 µM; in [2] (setting [8]), 74.4 ± 2.4 µM; in the data set with P. knowlesi PKA1H1, 23.7 ± 2.6 µM. Moreover, the “Selectivity Index (SI) (CC50MTT/EC50pLDH) P. falciparum 3D7 (CQ-sensitive)” value in [1] worked out at 10.4. Besides, the “Selectivity Index (SI) (CC50MTT/EC50pLDH) P. falciparum Gombak A (CQ-resistant)” value in data set [2] is 3.0. Besides, the “Selectivity Index (SI) (CC50MTT/EC50pLDH) P. knowlesi PKA1H1” value in the data set with P. knowlesi PKA1H1 is listed as 9.5.

In the case of `O=C(C=Cc1cccc(Cl)c1)C=Cc1cccc(Cl)c1` [MS40B, 1,5-Bis(3-chlorophenyl)penta-1,4-dien-3-one], the concentration for a half-maximal effect (EC50) in data set [1] (setting [6]) was found to be 13.7 ± 0.8 µM. For the same compound, in [1], the “Selectivity Index (SI) (CC50MTT/EC50pLDH) P. falciparum 3D7 (CQ-sensitive)” value amounted to 12.0 and the “antimalarial activity category against CQ-sensitive P. falciparum 3D7” value was “active”. Besides, in data set [2] (setting [8]), the concentration giving a half-maximal response (EC50) is 45.6 ± 1.3 µM. Moreover, the “Selectivity Index (SI) (CC50MTT/EC50pLDH) P. falciparum Gombak A (CQ-resistant)” value in [2] is listed as 3.6. For the same compound, in the data set on P. knowlesi PKA1H1, the EC50 turned out to be 16.6 ± 0.5 µM and the “Selectivity Index (SI) (CC50MTT/EC50pLDH) P. knowlesi PKA1H1” value was found to be 9.9.

As for `COc1ccc(C=C2CCCC(=Cc3ccc(OC)c(OC)c3OC)C2=O)c(OC)c1OC` [MS72A, 2,6-Bis(2,3,4-trimethoxybenzylidene)cyclohexanone], the EC50 in [1] (setting [6]) was over 500 µM; in data set [1] (setting [7]), 530 ± 3.6 µM; in data set [2] (setting [8]) it was over 200 µM; in the data set on P. knowlesi PKA1H1, 507.5 ± 1.3 µM.

For the compound `COc1cc(C=CC(=O)C=Cc2cc(OC)c(OC)c(OC)c2)cc(OC)c1OC` [MS34C, 1,5-Bis(3,4,5-trimethoxyphenyl)penta-1,4-dien-3-one], in data set [1], the “Selectivity Index (SI) (CC50MTT/EC50pLDH) P. falciparum 3D7 (CQ-sensitive)” value is 84.0 and the “antimalarial activity category against CQ-sensitive P. falciparum 3D7” value is “active”. In addition, the “Selectivity Index (SI) (CC50MTT/EC50pLDH) P. falciparum Gombak A (CQ-resistant)” value in data set [2] stood at 15.4. For the same compound, in the data set on P. knowlesi PKA1H1, the half-maximal effective concentration (EC50) is 11.8 ± 1.1 µM and the “Selectivity Index (SI) (CC50MTT/EC50pLDH) P. knowlesi PKA1H1” value was 11.4. In addition, the CC50 in the data set on Vero cell (Normal cell) was 134 ± 3.2 µM. In addition, the “effect on early embryonic development” value in the data set on zebrafish embryos [3] (up to 200 μM) is “no significant effect”. Also, the “morphological changes / heart development” value in the data set with zebrafish embryos [3] (setting [9]) is recorded as “no detectable morphological changes; also recorded: no effect on normal heart development”. Besides, the heart rate result in the data set with zebrafish larvae (setting [10]) is listed as “no obvious abnormalities; also recorded: normal heart beats”. In addition, in [4] (up to 200 μM), the “development … (ISVs)” value is given as “no effect on normal vessel development; also recorded: no significant difference”. Besides, the “mean STC activity” value in the data set on zebrafish embryos [5] is “No significant change”.

`O=C1C(=Cc2ccccc2F)CCC1=Cc1ccccc1F` [MS78, 2,5-Bis(2-fluorobenzylidene)cyclopentanone]: the EC50 in [1] (setting [6]) was over 500 µM; in data set [1] (setting [7]), 689.1 ± 4.2 µM; in data set [2] (setting [8]), over 200 µM; in the data set on P. knowlesi PKA1H1, 355 ± 7.1 µM.

As for `COc1cccc(C=C2CCCC(=Cc3cccc(OC)c3OC)C2=O)c1OC` [MS69, 2,6-Bis(2,3-dimethoxybenzylidene)cyclohexanone], the EC50 in data set [1] (setting [6]) was over 500 µM; in data set [1] (setting [7]), 785.8 ± 4.2 µM; in [2] (setting [8]) it was 28.7 ± 2 µM; in the data set on P. knowlesi PKA1H1 it was 324 ± 5.9 µM.

`O=C1C(=Cc2cccc(F)c2)CCC1=Cc1cccc(F)c1` [MS79, 2,5-Bis(3-fluorobenzylidene)cyclopentanone]: the EC50 in data set [1] (setting [6]) was over 500 µM; in data set [1] (setting [7]), 329.3 ± 2.6 µM; in [2] (setting [8]), over 200 µM; in the data set with P. knowlesi PKA1H1 it was 195 ± 2.7 µM.

With `COc1cc(C=C2CCCC(=Cc3cc(OC)c(OC)c(OC)c3)C2=O)cc(OC)c1OC` [MS72C, 2,6-Bis(3,4,5-trimethoxybenzylidene)cyclohexanone], the EC50 is over 500 µM in data set [1] (setting [6]), 515.1 ± 4.9 µM in [1] (setting [7]), over 200 µM in data set [2] (setting [8]) and 430.1 ± 2.3 µM in the data set with P. knowlesi PKA1H1.
